Laboratory results reported in PubChem BioAssay AID248 (DTP/NCI, 2004).
“And” between values parts separate entries of the source, which are not always exact repeats. Identical values can stand only once. Inconclusive results and toxic doses are left out. Rule as the data show it: active = T/C of 150% or more; inactive = T/C below 125%.

Tested on: L1210 leukemia ip in BDF1 mice, survival T/C
Experiment: NCI In Vivo Anticancer Drug Screen. Data for tumor model L1210 Leukemia (intraperitoneal) in B6D2F1 (BDF1) mice
Settings: endpoint: mean survival time, higher = longer survival
Summary of the method: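 Read-out is survival time, reported as the treated-group measurement over the vehicle-control measurement.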

[1] = dose: 100.0 mg/kg/injection, schedule: Q01DX001 (ip), vehicle: saline
[2] = dose: 200.0 mg/kg/injection, schedule: Q01DX001 (ip), vehicle: saline
[3] = dose: 400.0 mg/kg/injection, schedule: Q01DX001 (ip), vehicle: saline
[4] = dose: 100.0 mg/kg/injection, schedule: Q01DX009 (ip), vehicle: saline with Tween-80
[5] = dose: 100.0 mg/kg/injection, schedule: Q04DX003 (ip), vehicle: saline
[6] = dose: 200.0 mg/kg/injection, schedule: Q04DX003 (ip), vehicle: saline
[7] = dose: 100.0 mg/kg/injection, schedule: Q01DX001 (ip), vehicle: carboxymethylcellulose (CMC)
[8] = dose: 200.0 mg/kg/injection, schedule: Q01DX001 (ip), vehicle: carboxymethylcellulose (CMC)
[9] = dose: 400.0 mg/kg/injection, schedule: Q01DX001 (ip), vehicle: carboxymethylcellulose (CMC)
[10] = dose: 100.0 mg/kg/injection, schedule: Q01DX009 (ip), vehicle: saline

Measured: T/C

CCC(CC)(CC)c1ccc2ccccc2c1
inactive: [1] 98 % of control | [2] 96 % of control | [3] 106 % of control

Cc1ccc(C(=O)c2ccccc2C(=O)O)cc1N
inactive: [4] 105 % of control | dose: 100.0 mg/kg/injection, schedule: Q04DX003 (ip), vehicle: saline with Tween-80 99 % of control | dose: 200.0 mg/kg/injection, schedule: Q01DX009 (ip), vehicle: saline with Tween-80 97 % of control | dose: 200.0 mg/kg/injection, schedule: Q04DX003 (ip), vehicle: saline with Tween-80 99 % of control | dose: 400.0 mg/kg/injection, schedule: Q01DX009 (ip), vehicle: saline with Tween-80 106 % of control | dose: 400.0 mg/kg/injection, schedule: Q04DX003 (ip), vehicle: saline with Tween-80 97 % of control

CC(=O)N(C)C
inactive: dose: 62.5 mg/kg/injection, schedule: Q01DX010 (ip), vehicle: saline 94 % of control and 97 % of control | dose: 125.0 mg/kg/injection, schedule: Q01DX010 (ip), vehicle: saline 105 % of control and 91 % of control | dose: 250.0 mg/kg/injection, schedule: Q01DX010 (ip), vehicle: saline 103 % of control and 91 % of control | dose: 500.0 mg/kg/injection, schedule: Q01DX001 (ip), vehicle: saline 101 % of control | dose: 500.0 mg/kg/injection, schedule: Q01DX010 (ip), vehicle: saline 100 % of control and 89 % of control | dose: 900.0 mg/kg/injection, schedule: Q01DX Z (ip), vehicle: other 106 % of control | dose: 1000.0 mg/kg/injection, schedule: Q01DX001 (ip), vehicle: saline 100 % of control | dose: 2000.0 mg/kg/injection, schedule: Q01DX001 (ip), vehicle: saline 97 % of control | dose: 3000.0 mg/kg/injection, schedule: Q01DX Z (ip), vehicle: other 87 % of control

C/C(=N\NC(=O)c1ccccc1)c1ccc(-c2ccccc2)cc1
inactive: dose: 100.0 mg/kg/injection, schedule: Q01DX009 (ip), vehicle: Klucel (hydroxypropylcellulose) (HPC) 94 % of control | dose: 200.0 mg/kg/injection, schedule: Q01DX009 (ip), vehicle: Klucel (hydroxypropylcellulose) (HPC) 105 % of control | dose: 400.0 mg/kg/injection, schedule: Q01DX009 (ip), vehicle: Klucel (hydroxypropylcellulose) (HPC) 94 % of control

COC(=O)C(Nc1ccc([N+](=O)[O-])cc1[N+](=O)[O-])C(C)O (stereo not given)
inactive: dose: 100.0 mg/kg/injection, schedule: Q01DX001 (ip), vehicle: other 104 % of control | dose: 200.0 mg/kg/injection, schedule: Q01DX001 (ip), vehicle: other 101 % of control | dose: 400.0 mg/kg/injection, schedule: Q01DX001 (ip), vehicle: other 111 % of control

CN(C)c1ccc(N=Nc2ccc3c(c2)C(=O)c2ccccc2C3=O)cc1
inactive: dose: 100.0 mg/kg/injection, schedule: Q01DX009 (ip), vehicle: other 104 % of control | dose: 200.0 mg/kg/injection, schedule: Q01DX009 (ip), vehicle: other 105 % of control | dose: 400.0 mg/kg/injection, schedule: Q01DX009 (ip), vehicle: other 98 % of control

COc1ccc(C(O)S(=O)(=O)O)cc1 (stereo not given)
inactive: [5] 98 % of control | [6] 100 % of control | dose: 400.0 mg/kg/injection, schedule: Q04DX003 (ip), vehicle: saline 100 % of control

Cn1c(=O)n2n(c1=O)C1CCC2C2C=CC21 (stereo not given)
inactive: dose: 6.25 mg/kg/injection, schedule: Q01DX001 (ip), vehicle: saline 93 % of control | dose: 12.5 mg/kg/injection, schedule: Q01DX001 (ip), vehicle: saline 94 % of control

CC(C)CC(=O)Cc1ccccc1
inactive: [1] 105 % of control | [2] 105 % of control | [3] 105 % of control

N=C(c1ccccc1)c1ccccc1S(=O)(=O)Nc1ccccc1
inactive: [7] 95 % of control | [8] 101 % of control | [9] 95 % of control

CCOC1OCN(C)CC1(C)C (stereo not given)
inactive: dose: 50.0 mg/kg/injection, schedule: Q01DX009 (ip), vehicle: saline 93 % of control | [10] 109 % of control | [5] 101 % of control | dose: 132.0 mg/kg/injection, schedule: Q01DX009 (ip), vehicle: saline sonified 113 % of control | dose: 200.0 mg/kg/injection, schedule: Q01DX009 (ip), vehicle: saline sonified 118 % of control | [6] 97 % of control

O=C1Oc2ccccc2C1c1ccccc1 (stereo not given)
inactive: dose: 87.5 mg/kg/injection, schedule: Q01DX009 (ip), vehicle: other 103 % of control | dose: 175.0 mg/kg/injection, schedule: Q01DX009 (ip), vehicle: other 108 % of control | dose: 350.0 mg/kg/injection, schedule: Q01DX009 (ip), vehicle: other 106 % of control

C[N+](C)(C)CCOC(=O)c1ccc(CBr)cc1
inactive: dose: 25.0 mg/kg/injection, schedule: Q01DX009 (ip), vehicle: saline with Tween-80 104 % of control | dose: 50.0 mg/kg/injection, schedule: Q01DX009 (ip), vehicle: saline with Tween-80 108 % of control | dose: 50.0 mg/kg/injection, schedule: Q04DX002 (ip), vehicle: saline 90 % of control | [4] 86 % of control | [10] 103 % of control | dose: 100.0 mg/kg/injection, schedule: Q04DX002 (ip), vehicle: saline 98 % of control

CCOC(=O)/C(C)=N\Nc1ccc([N+](=O)[O-])cc1
inactive: dose: 50.0 mg/kg/injection, schedule: Q01DX001 (ip), vehicle: carboxymethylcellulose (CMC) 92 % of control | [7] 90 % of control | [8] 92 % of control | [9] 103 % of control

O=C1OC(c2ccccc2)=N/C1=C\c1ccc2c(c1)OCO2
inactive: [7] 95 % of control | [8] 98 % of control

CN(N=O)C(=O)NC(=O)NCCCl
inactive: dose: 4.5 mg/kg/injection, schedule: Q01DX001 (ip), vehicle: carboxymethylcellulose (CMC) 118 % of control | dose: 9.0 mg/kg/injection, schedule: Q01DX001 (ip), vehicle: carboxymethylcellulose (CMC) 115 % of control | dose: 26.0 mg/kg/injection, schedule: Q01DX001 (ip), vehicle: carboxymethylcellulose (CMC) 124 % of control

Nc1nc(N)c(N=Nc2ccc([As](=O)(O)O)c(O)c2)c(=O)[nH]1
inactive: [1] 91 % of control | [2] 93 % of control | [3] 93 % of control
